Assay [1] concerns the target T1, human sphingosine-1-phosphate receptor 1 (S1P1) (Homo sapiens (Human), UniProt P21453). Briefly: Inhibition of cAMP production (HTRF cAMP HiRange), S1P1 CHO-K1 cells. In kind it is cell-based. The note with it: for Emax: CHO-K1, efficacy (SPAN) normalized to fingolimod, read-out: hS1P1 cAMP SPAN. An outline of the steps: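 CHO-K1 cells stably co-expressing human S1P1 (C-terminal Prolink tag) and EA-β-arrestin2 were grown in AssayComplete Media 6 at 37° C. and 5% CO2, plated, and incubated overnight. Agonist-driven inhibition of intracellular cAMP was read by TR-FRET with the HTRF cAMP HiRange kit on a PheraStar reader. Potency is pEC50, and efficacy (SPAN) is normalized to fingolimod.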
Target sequence in this assay (P21453 whole entry, looked up): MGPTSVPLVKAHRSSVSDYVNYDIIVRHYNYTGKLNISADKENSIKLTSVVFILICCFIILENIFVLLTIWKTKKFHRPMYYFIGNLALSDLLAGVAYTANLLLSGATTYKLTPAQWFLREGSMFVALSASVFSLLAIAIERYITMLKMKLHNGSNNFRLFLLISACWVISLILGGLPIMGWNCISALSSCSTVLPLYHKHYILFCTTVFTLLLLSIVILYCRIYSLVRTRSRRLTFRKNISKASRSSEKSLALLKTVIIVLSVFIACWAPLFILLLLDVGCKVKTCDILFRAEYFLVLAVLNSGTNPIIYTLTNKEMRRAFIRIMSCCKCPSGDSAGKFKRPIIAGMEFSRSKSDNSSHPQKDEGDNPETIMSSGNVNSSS

Assay [2] addresses T1, human sphingosine-1-phosphate receptor 1 (S1P1). Briefly: β-Arrestin2 recruitment assay (PathHunter), S1P1 CHO-K1 cells. The format is cell-based. To be noted: for Emax: CHO-K1, efficacy (SPAN) normalized to fingolimod, read-out: hS1P1 B-arrestin2 SPAN. The procedure, abridged:
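Enzyme-fragment complementation read-out: agonist-driven β-arrestin2 binding to ProLink-tagged human S1P1 in stable CHO-K1 cells restores β-galactosidase, measured 1 h at room temperature after a 60 min 37° C. compound incubation. Potency as pEC50, efficacy relative to fingolimod (SPAN).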
Target sequence in this assay (P21453 whole entry, looked up): as above
Target sequence in this assay (P32121 whole entry partner, looked up): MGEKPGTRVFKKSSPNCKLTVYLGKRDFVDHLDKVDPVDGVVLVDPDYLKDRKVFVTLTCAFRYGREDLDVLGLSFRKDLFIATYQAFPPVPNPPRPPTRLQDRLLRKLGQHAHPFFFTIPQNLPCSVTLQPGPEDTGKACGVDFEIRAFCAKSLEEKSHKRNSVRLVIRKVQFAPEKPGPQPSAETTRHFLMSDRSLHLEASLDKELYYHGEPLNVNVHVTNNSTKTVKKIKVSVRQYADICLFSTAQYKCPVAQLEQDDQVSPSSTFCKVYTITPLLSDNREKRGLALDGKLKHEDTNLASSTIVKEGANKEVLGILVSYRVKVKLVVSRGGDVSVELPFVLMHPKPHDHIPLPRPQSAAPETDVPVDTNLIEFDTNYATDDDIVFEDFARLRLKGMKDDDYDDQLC

The test system of assay [3] is paclitaxel induced peripheral neuropathy. Briefly: Reversal of allodynia induced by paclitaxel in mice (s.c. or p.o., von Frey frequency method). The format is in vivo, c57bl/6 mice. To be noted: Mus musculus, sc, 0.5 h, 1 mg/kg s.c., tested 30 min after dosing, read-out: Screen @ 1 mg/kg sc (% MPE). An outline of the steps: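 Neuropathy was induced in mice by paclitaxel (6 mg/kg i.p., days 1, 3, 5, 7) or oxaliplatin (4 mg/kg i.p., days 1-5), with re-testing about 14 days later. Compounds were given s.c. (tested at 30 min) or p.o. (tested at 60 min; paclitaxel only). A 0.4 g von Frey filament was applied ten times per paw, and % non-response was converted to % MPE.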

Assay [4] concerns the target human sphingosine-1-phosphate receptor 2 (S1P2) (Homo sapiens (Human), UniProt O95136). Nature of the assay: Inositol monophosphate production (IP-one TB kit), S1P2 CHO-K1 cells. In kind it is cell-based. The note with it: for Emax: CHO-K1, efficacy normalized to CYM5520, read-out: hS1P2 IP-one SPAN; for hS1P2 IP-one pEC50: inositol monophosphate accumulation. The protocol: (§1) Stable clonal Chinese hamster ovary K1 (CHO-K1) cells co-expressing EA-β-arrestin2 and the human sphingosine-1-phosphate receptor 2 (NM_004230.3, S1P2), human sphingosine-1-phosphate receptor 3 (NM_005226, S1P3) and sphingosine-1-phosphate receptor 5 (NM_001166215.1, S1P5) with a C-terminal Prolink™ tag were purchased from DiscoverX corporation (S1P2: Cat #93-0256C2, S1P3: Cat #93-0217C2, S1P5: Cat #93-0583C2).
(§2) Cell lines were cultured in AssayComplete™ Media 6 (DiscoverX Corporation, Cat #: 920018GF2) at 37° C. and 5% CO2 in a humidified CO2 and temperature-controlled incubator. To begin assay plating, cells were washed with dulbecco's phosphate buffered saline (CellGro, Cat #: 21-031-CV) and lifted from the culturing flask by incubation (37° C., 5 min) with CellStripper (Cellgro, Cat #: 25-056-CI). […] Plated cells were incubated overnight at 37° C. and 5% CO2 in a humidified CO2 and temperature-controlled incubator.
S1P2 Agonist-promoted G-protein responses were determined by measuring changes in intracellular inositol monophosphate using the IP-one TB kit (CisBio, Cat #: 62IPAPEJ) based on time-resolved fluorescence resonance energy transfer (TR-FRET) technology. AssayComplete™ Cell Plating 2 Reagent was removed and replaced with 1× IP-one stimulation buffer (as per manufacturer's instructions) along with test or control compounds at the desired concentrations. Following a 60-minute incubation at 37° C. and 5% CO2 in a humidified CO2 and temperature-controlled incubator, the components of the IP-one TB kit were added as per the manufacturer's instructions. After an hour incubation at room temperature, plates were analyzed by a BMG PheraStar microplate reader.
(§3) The tables below include the efficacy of the compound as compared to a positive control, referred to as “SPAN”. These values are normalized to fingolimod, a known agonist of the sphingosine-1-phosphate 3 and 5 receptor or CYM5520, a known agonist of the sphingosine-1-phosphate 2 receptor. The tables also include potency values (pEC50) for modulating discrete receptor-mediated activities (inhibition of cAMP production or inositol monophosphate accumulation).

For assay [5], the target named is human sphingosine-1-phosphate receptor 3 (S1P3) (Homo sapiens (Human), UniProt Q99500). Nature of the assay: Inhibition of cAMP production (HTRF), S1P3 CHO-K1 cells. To be noted: for Emax: CHO-K1, efficacy normalized to fingolimod, read-out: hS1P3 cAMP SPAN; for hS1P3 cAMP pEC50: inhibition of cAMP production. The format is cell-based. The method, then: as §1, §2
Sequence of human sphingosine-1-phosphate receptor 3 (S1P3) (Q99500 whole entry): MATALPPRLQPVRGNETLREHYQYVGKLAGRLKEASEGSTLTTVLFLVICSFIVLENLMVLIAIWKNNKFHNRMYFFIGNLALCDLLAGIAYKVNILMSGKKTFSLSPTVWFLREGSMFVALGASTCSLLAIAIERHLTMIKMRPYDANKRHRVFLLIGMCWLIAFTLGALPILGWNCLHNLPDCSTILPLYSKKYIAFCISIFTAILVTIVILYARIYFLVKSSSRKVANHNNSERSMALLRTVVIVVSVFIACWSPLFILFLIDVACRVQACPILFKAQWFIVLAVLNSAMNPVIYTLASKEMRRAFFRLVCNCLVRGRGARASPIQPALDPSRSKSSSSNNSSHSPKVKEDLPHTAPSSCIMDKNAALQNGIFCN
(§4) S1P3 and S1P5 Agonist-promoted G-protein responses were determined by measuring changes in intracellular cAMP using the HTRF® cAMP HiRange kit (CisBio, Cat #: 62AM6PEJ) based on time-resolved fluorescence resonance energy transfer (TR-FRET) technology. […] Following a 30-minute room temperature incubation the components of the cAMP HiRange kit were added as per the manufacturer's instructions. After an hour incubation at room temperature, plates were analyzed by a BMG PheraStar microplate reader.
as §3
For orientation: Cyclic AMP is a second messenger, typically raised through Gs and lowered through Gi signalling.

The target of assay [6] is sphingosine-1-phosphate receptor 5 (S1P5) (Homo sapiens (Human), UniProt Q9H228). Nature of the assay: Inhibition of cAMP production (HTRF), S1P5 CHO-K1 cells. In kind it is cell-based. To be noted: for Emax: CHO-K1, efficacy normalized to fingolimod, read-out: hS1P5 cAMP SPAN; for hS1P5 cAMP pEC50: inhibition of cAMP production. The protocol: as §1, §2, §4, §3
Sequence of sphingosine-1-phosphate receptor 5 (S1P5) (Q9H228 whole entry): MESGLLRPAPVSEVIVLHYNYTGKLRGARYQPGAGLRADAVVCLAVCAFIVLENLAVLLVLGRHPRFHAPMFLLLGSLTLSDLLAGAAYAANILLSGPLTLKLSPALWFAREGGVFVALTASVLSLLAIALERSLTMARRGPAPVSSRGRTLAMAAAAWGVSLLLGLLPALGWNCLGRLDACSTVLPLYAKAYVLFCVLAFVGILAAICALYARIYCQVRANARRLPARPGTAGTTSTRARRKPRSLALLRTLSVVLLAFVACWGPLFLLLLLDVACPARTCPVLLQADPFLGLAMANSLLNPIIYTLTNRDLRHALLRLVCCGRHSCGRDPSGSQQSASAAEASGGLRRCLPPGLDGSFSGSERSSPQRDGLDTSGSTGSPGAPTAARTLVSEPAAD
Where [7] appears, read: inhibition of cAMP production, S1P1 CHO-K1 cells.
Setting [8] is: β-arrestin2 recruitment, S1P1 CHO-K1 cells.

Sequence of human sphingosine-1-phosphate receptor 2 (S1P2) (O95136 whole entry): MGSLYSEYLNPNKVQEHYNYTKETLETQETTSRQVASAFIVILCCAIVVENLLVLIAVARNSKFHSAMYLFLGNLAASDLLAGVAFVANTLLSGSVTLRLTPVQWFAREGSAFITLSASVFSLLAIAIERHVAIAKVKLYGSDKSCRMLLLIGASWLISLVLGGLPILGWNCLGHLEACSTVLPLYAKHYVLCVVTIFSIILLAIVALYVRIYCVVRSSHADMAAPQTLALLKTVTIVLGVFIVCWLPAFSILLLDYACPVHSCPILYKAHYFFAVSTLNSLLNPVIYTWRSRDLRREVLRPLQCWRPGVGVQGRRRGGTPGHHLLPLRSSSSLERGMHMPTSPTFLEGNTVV

Turning to `C=CCNc1ccc(-c2nc(-c3ccc(NS(C)(=O)=O)cc3)no2)cc1C#N` [Compound 149, N-(4-(5-(4-(allylamino)-3-cyanophenyl)-1,2,4-oxadiazol-3-yl)phenyl)methanesulfonamide], the Emax in assay [1] is > 75%; in assay [2] it was > 75%; in assay [4], < 50%; in assay [5], > 50%; in assay [6] it was > 50%. Further, the “hS1P1 cAMP pEC50” value in assay [1] (setting [7]) is >6.5. Further, the “hS1P1 B-arrestin2 pEC50” value in assay [2] (setting [8]) is >5. Moreover, the inhibition in vivo at 1 mg/kg in assay [3] is < 50%. Moreover, the “hS1P2 IP-one pEC50” value in assay [4] is listed as <5.0. The “hS1P3 cAMP pEC50” value in assay [5] was >5.0. Besides, the “hS1P5 cAMP pEC50” value in assay [6] was >5.0.

For the compound `C=CCNc1ccc(-c2nc(-c3ccc4[nH]cnc4c3)no2)cc1C#N` [Compound 177, 5-(3-(1H-benzo[d]imidazol-5-yl)-1,2,4-oxadiazol-5-yl)-2-(allylamino)benzonitrile], the Emax was > 75% in assay [1]; > 75% in assay [2]; < 50% in assay [4]; > 50% in assay [5]; > 50% in assay [6]. Moreover, in assay [1] (setting [7]), the “hS1P1 cAMP pEC50” value was >6.5. Further, the “hS1P1 B-arrestin2 pEC50” value in assay [2] (setting [8]) is given as >5. Moreover, the inhibition in vivo at 1 mg/kg in assay [3] was > 50%. The “hS1P2 IP-one pEC50” value in assay [4] is given as <5.0. Further, the “hS1P3 cAMP pEC50” value in assay [5] is recorded as >5.0. Further, the “hS1P5 cAMP pEC50” value in assay [6] is on record as >5.0.

Turning to `CCC1(CC)CC(=O)c2cc(-c3nc(-c4ccc(C(=O)NC)cc4)no3)ccc2O1` [Compound 185, 4-(5-(2,2-diethyl-4-oxochroman-6-yl)-1,2,4-oxadiazol-3-yl)-N-methylbenzamide], the Emax in assay [1] is > 75%; in assay [2], > 75%; in assay [4], < 50%; in assay [5], < 50%; in assay [6], > 50%. In addition, the “hS1P1 cAMP pEC50” value in assay [1] (setting [7]) was >6.5. Moreover, the “hS1P1 B-arrestin2 pEC50” value in assay [2] (setting [8]) was >5. In addition, in assay [3], the inhibition in vivo at 1 mg/kg is > 50%. In addition, the “hS1P2 IP-one pEC50” value in assay [4] is recorded as <5.0. The “hS1P3 cAMP pEC50” value in assay [5] is recorded as <5.0. Besides, in assay [6], the “hS1P5 cAMP pEC50” value was <5.0.

For `CCC1(CC)CC(=O)c2cc(-c3nc(-c4ccccc4Cl)no3)ccc2O1` [Compound 221, 6-(3-(2-chlorophenyl)-1,2,4-oxadiazol-5-yl)-2,2-diethylchroman-4-one], the “hS1P1 cAMP pEC50” value in assay [1] (setting [7]) is reported as >6.5. For the same compound, the “hS1P1 B-arrestin2 pEC50” value in assay [2] (setting [8]) is >5. Also, the inhibition in vivo at 1 mg/kg in assay [3] was < 50%. Also, in assay [4], the “hS1P2 IP-one pEC50” value is listed as <5.0. For the same compound, the “hS1P3 cAMP pEC50” value in assay [5] is on record as >5.0. In addition, in assay [6], the “hS1P5 cAMP pEC50” value was >5.0.

Turning to `C=CCNc1ccc(-c2nc(-c3cn[nH]c3)no2)cc1C#N` [Compound 252, 5-(3-(1H-pyrazol-4-yl)-1,2,4-oxadiazol-5-yl)-2-(allylamino)benzonitrile], the EC50 in assay [1] (inhibition of cAMP production, S1P1 CHO-K1 cells, read-out: hS1P1 cAMP pEC50 (converted)) was < 0.316 µM; in assay [2] (β-arrestin2 recruitment, S1P1 CHO-K1 cells, read-out: hS1P1 B-arrestin2 pEC50 (converted)) it was < 10 µM. Moreover, in assay [3], the inhibition in vivo at 1 mg/kg is < 50%. Also, in assay [4], the “hS1P2 IP-one pEC50” value was >5.0. In assay [5], the “hS1P3 cAMP pEC50” value was >5.0. The “hS1P5 cAMP pEC50” value in assay [6] is given as >5.0.

In the case of `CC(C)Nc1ccc(-c2nc(-c3ccc4c(c3)CCC(=O)N4)no2)cc1C#N` [Compound 259, 2-(isopropylamino)-5-(3-(2-oxo-1,2,3,4-tetrahydroquinolin-6-yl)-1,2,4-oxadiazol-5-yl)benzonitrile], the Emax in assay [1] is > 75%; in assay [2] it was < 75%; in assay [4], < 50%; in assay [5] it was < 50%; in assay [6], < 50%. Moreover, the “hS1P1 cAMP pEC50” value in assay [1] (setting [7]) is listed as >6.5. Also, the “hS1P1 B-arrestin2 pEC50” value in assay [2] (setting [8]) is reported as >5. The inhibition in vivo at 1 mg/kg in assay [3] is < 50%. Also, the “hS1P2 IP-one pEC50” value in assay [4] is <5.0. Further, in assay [5], the “hS1P3 cAMP pEC50” value is <5.0. Moreover, the “hS1P5 cAMP pEC50” value in assay [6] is <5.0.
